Measurements: article PMC3494675, “Structure-Function Analysis of the Glioma Targeting NFL-TBS.40-63 Peptide Corresponding to the Tubulin-Binding Site on the Light Neurofilament Subunit” (PLoS ONE, 2012)
Peptide text beside a SMILES is read from it. * marks the point of attachment. Biotin = O=C1N[C@H]2[C@H](CS[C@H]2CCCCC(=O)*)N1

Columns and labels:
[1] = system: T98G human glioblastoma cells; experiment: Peptide incorporation into T98G cells (immunocytochemistry, cell counting); assay type: cell-based; conditions: 6 hours; for Peptide incorporation (% of cells): T98G cells, 10 µM biotinylated peptide, Alexa-labeled avidin/streptavidin fluorescence microscopy, minimum 200 cells per experiment, mean ± S.E.M., triplicated
Experimental: (§1) Cells containing the biotinylated peptide were detected using Alexa-labeled avidin (green fluorescence) and those displaying a normal or a destroyed MT network were detected with an anti-tubulin antibody (red fluorescence) ( Figure 1A-B ). Then, we counted a minimum of 200 cells per slide containing or not the peptide, and with a normal or destroyed microtubule network ( Figure 1C ). As illustrated on Figure 1A glioblastoma cells contain a rich MT network. […] Cells were plated on cover slips and cultured in media containing biotinylated peptides (10 μM) for 6 hours. […] The cells were then incubated during 10 min in a 0.5% triton X-100 permeabilization solution, and washed 3 times in PBS. Next, they were incubated in a blocking solution (PBS 5% BSA) for 15 min, then incubated with mouse anti-ß-tubulin antibody (Sigma) 1/200 overnight. Tubulin and biotinylated peptides were localized using respectively Alexa 568 nm anti-mouse antibody and streptavidin Alexa 488 nm (Molecular Probes) 1/200 for 1 hour, followed by washing in PBS. […] Sigma) for 5 min, washed twice with PBS, then cover slips were mounted with an antifading solution. Observations were performed with an Olympus confocal microscope (BX50) using Fluoview.3.1. Software or a Leica DMI6000 inverted microscope and analyzed with Metamorph 7.1.7.0. software. We counted cells containing the peptide and cells displaying a destroyed MT network. Experiments were repeated at least three times, and a minimum of 200 cells was scored during each experiment.

[2] = system: T98G human glioblastoma cells; experiment: Disintegration of the microtubule network in T98G cells (anti-tubulin immunostaining, cell counting); assay type: cell-based; conditions: T98G cells, 10 µM biotinylated peptide, 6 hours; anti-tubulin immunostaining; minimum 200 cells per experiment; mean ± S.E.M., triplicated
Experimental: as §1

SMILES	Peptide incorporation (% of cells) [1]	Disintegration of MT (% of cells) [2]	Cell penetration / internalization in T98G cells (in words) ([1]; 10 µM, immunocytochemistry, compared to original NFL-TBS.40-63)
CC(C)C[C@H](NC(=O)[C@H](CO)NC(=O)[C@H](CO)NC(=O)[C@H](CO)NC(=O)[C@@H](NC(=O)[C@@H]1CCCN1C(=O)[C@H](C)NC(=O)[C@H](CO)NC(=O)[C@H](Cc1ccc(O)cc1)NC(=O)[C@H](CO)NC(=O)[C@H](CO)NC(=O)[C@H](Cc1ccc(O)cc1)NC(=O)CCCC[C@@H]1SC[C@@H]2NC(=O)N[C@@H]21)C(C)C)C(=O)N[C@@H](CO)C(=O)N[C@H](C(=O)N[C@@H](CCCNC(=N)N)C(=O)N[C@@H](CCCNC(=N)N)C(=O)N[C@@H](CO)C(=O)N[C@@H](Cc1ccc(O)cc1)C(=O)N[C@@H](CO)C(=O)N[C@@H](CO)C(=O)N[C@@H](CO)C(=O)N[C@@H](CO)C(=O)NCC(=O)N[C@@H](CO)C(N)=O)C(C)C [Ala6Ala] (Biotin-YSSYSAPVSSSLSVRRSYSSSSGS-NH2)	50.3±4.6 % of cells	48.1±6.6 % of cells	
CC(C)C[C@H](NC(=O)[C@H](CO)NC(=O)[C@H](CO)NC(=O)[C@H](CO)NC(=O)[C@@H](NC(=O)[C@@H]1CCCN1C(=O)[C@H](C)NC(=O)[C@H](CO)NC(=O)[C@H](Cc1ccc(O)cc1)NC(=O)[C@H](CO)NC(=O)[C@H](CO)NC(=O)[C@H](Cc1ccc(O)cc1)NC(=O)CCCC[C@@H]1SC[C@@H]2NC(=O)N[C@@H]21)C(C)C)C(=O)N[C@@H](CO)C(=O)N[C@H](C(=O)N[C@@H](C)C(=O)N[C@@H](CCCNC(=N)N)C(=O)N[C@@H](CO)C(=O)N[C@@H](Cc1ccc(O)cc1)C(=O)N[C@@H](CO)C(=O)N[C@@H](CO)C(=O)N[C@@H](CO)C(=O)N[C@@H](CO)C(=O)NCC(=O)N[C@@H](CO)C(N)=O)C(C)C [Arg15Ala] (Biotin-YSSYSAPVSSSLSVARSYSSSSGS-NH2)	18.1±1.3 % of cells	25.5±6.3 % of cells	
CC(C)C[C@H](NC(=O)[C@H](CO)NC(=O)[C@H](CO)NC(=O)[C@H](CO)NC(=O)[C@@H](NC(=O)[C@@H]1CCCN1C(=O)[C@H](C)NC(=O)[C@H](CO)NC(=O)[C@H](Cc1ccc(O)cc1)NC(=O)[C@H](CO)NC(=O)[C@H](CO)NC(=O)[C@H](Cc1ccc(O)cc1)NC(=O)CCCC[C@@H]1SC[C@@H]2NC(=O)N[C@@H]21)C(C)C)C(=O)N[C@@H](CO)C(=O)N[C@H](C(=O)N[C@@H](CCCNC(=N)N)C(=O)N[C@@H](C)C(=O)N[C@@H](CO)C(=O)N[C@@H](Cc1ccc(O)cc1)C(=O)N[C@@H](CO)C(=O)N[C@@H](CO)C(=O)N[C@@H](CO)C(=O)N[C@@H](CO)C(=O)NCC(=O)N[C@@H](CO)C(N)=O)C(C)C [Arg16Ala] (Biotin-YSSYSAPVSSSLSVRASYSSSSGS-NH2)	0 % of cells	15.6±3.0 % of cells	
CC(C)C[C@H](NC(=O)[C@H](CO)NC(=O)[C@H](CO)NC(=O)[C@H](CO)NC(=O)[C@@H](NC(=O)[C@@H]1CCCN1C(=O)[C@H](C)NC(=O)[C@H](CO)NC(=O)[C@H](Cc1ccc(O)cc1)NC(=O)[C@H](CO)NC(=O)[C@H](CO)NC(=O)[C@H](Cc1ccc(O)cc1)NC(=O)CCCC[C@@H]1SC[C@@H]2NC(=O)N[C@@H]21)C(C)C)C(=O)N[C@@H](CO)C(=O)N[C@H](C(=O)N[C@@H](CCCNC(=N)N)C(=O)N[C@@H](CCCCN)C(=O)N[C@@H](CO)C(=O)N[C@@H](Cc1ccc(O)cc1)C(=O)N[C@@H](CO)C(=O)N[C@@H](CO)C(=O)N[C@@H](CO)C(=O)N[C@@H](CO)C(=O)NCC(=O)N[C@@H](CO)C(N)=O)C(C)C [Arg16Lys] (Biotin-YSSYSAPVSSSLSVRKSYSSSSGS-NH2)	32.9±1.3 % of cells	36.9±0.9 % of cells	
CC(C)C[C@H](NC(=O)[C@H](CO)NC(=O)[C@H](CO)NC(=O)[C@H](CO)NC(=O)[C@@H](NC(=O)[C@@H]1CCCN1C(=O)[C@H](C)NC(=O)[C@H](CO)NC(=O)[C@H](Cc1ccc(O)cc1)NC(=O)[C@H](CO)NC(=O)[C@H](CO)NC(=O)[C@H](Cc1ccc(O)cc1)NC(=O)CCCC[C@@H]1SC[C@@H]2NC(=O)N[C@@H]21)C(C)C)C(=O)N[C@@H](CO)C(=O)N[C@H](C(=O)N[C@@H](CCCNC(=N)N)C(=O)N[C@@H](CCCNC(=N)N)C(=O)N[C@@H](CO)C(=O)N[C@@H](Cc1ccc(O)cc1)C(=O)N[C@@H](CO)C(=O)N[C@@H](CO)C(=O)N[C@@H](CO)C(=O)N[C@@H](CO)C(=O)N[C@@H](C)C(=O)N[C@@H](CO)C(N)=O)C(C)C [Gly23Ala] (Biotin-YSSYSAPVSSSLSVRRSYSSSSAS-NH2)	6.2±6.2 % of cells	16.9±4.5 % of cells	only weak cell-penetrating activity
CC(C)[C@H](NC(=O)[C@H](CO)NC(=O)[C@H](C)NC(=O)[C@H](CO)NC(=O)[C@H](CO)NC(=O)[C@H](CO)NC(=O)[C@@H](NC(=O)[C@@H]1CCCN1C(=O)[C@H](C)NC(=O)[C@H](CO)NC(=O)[C@H](Cc1ccc(O)cc1)NC(=O)[C@H](CO)NC(=O)[C@H](CO)NC(=O)[C@H](Cc1ccc(O)cc1)NC(=O)CCCC[C@@H]1SC[C@@H]2NC(=O)N[C@@H]21)C(C)C)C(=O)N[C@@H](CCCNC(=N)N)C(=O)N[C@@H](CCCNC(=N)N)C(=O)N[C@@H](CO)C(=O)N[C@@H](Cc1ccc(O)cc1)C(=O)N[C@@H](CO)C(=O)N[C@@H](CO)C(=O)N[C@@H](CO)C(=O)N[C@@H](CO)C(=O)NCC(=O)N[C@@H](CO)C(N)=O [Leu12Ala] (Biotin-YSSYSAPVSSSASVRRSYSSSSGS-NH2)	0 % of cells	15.5±2.8 % of cells	
CC(C)[C@H](NC(=O)[C@H](CO)NC(=O)[C@@H](NC(=O)[C@H](CO)NC(=O)[C@H](CO)NC(=O)[C@H](CO)NC(=O)[C@@H](NC(=O)[C@@H]1CCCN1C(=O)[C@H](C)NC(=O)[C@H](CO)NC(=O)[C@H](Cc1ccc(O)cc1)NC(=O)[C@H](CO)NC(=O)[C@H](CO)NC(=O)[C@H](Cc1ccc(O)cc1)NC(=O)CCCC[C@@H]1SC[C@@H]2NC(=O)N[C@@H]21)C(C)C)C(C)C)C(=O)N[C@@H](CCCNC(=N)N)C(=O)N[C@@H](CCCNC(=N)N)C(=O)N[C@@H](CO)C(=O)N[C@@H](Cc1ccc(O)cc1)C(=O)N[C@@H](CO)C(=O)N[C@@H](CO)C(=O)N[C@@H](CO)C(=O)N[C@@H](CO)C(=O)NCC(=O)N[C@@H](CO)C(N)=O [Leu12Val] (Biotin-YSSYSAPVSSSVSVRRSYSSSSGS-NH2)	58.6±5.0 % of cells	43.8±1.7 % of cells	
CC(C)C[C@H](NC(=O)[C@H](CO)NC(=O)[C@H](CO)NC(=O)[C@H](CO)NC(=O)[C@@H](NC(=O)[C@H](C)NC(=O)[C@H](C)NC(=O)[C@H](CO)NC(=O)[C@H](Cc1ccc(O)cc1)NC(=O)[C@H](CO)NC(=O)[C@H](CO)NC(=O)[C@H](Cc1ccc(O)cc1)NC(=O)CCCC[C@@H]1SC[C@@H]2NC(=O)N[C@@H]21)C(C)C)C(=O)N[C@@H](CO)C(=O)N[C@H](C(=O)N[C@@H](CCCNC(=N)N)C(=O)N[C@@H](CCCNC(=N)N)C(=O)N[C@@H](CO)C(=O)N[C@@H](Cc1ccc(O)cc1)C(=O)N[C@@H](CO)C(=O)N[C@@H](CO)C(=O)N[C@@H](CO)C(=O)N[C@@H](CO)C(=O)NCC(=O)N[C@@H](CO)C(N)=O)C(C)C [Pro7Ala] (Biotin-YSSYSAAVSSSLSVRRSYSSSSGS-NH2)	16.7±4.6 % of cells	26.6±5.9 % of cells	
CC(C)C[C@H](NC(=O)[C@H](CO)NC(=O)[C@H](CO)NC(=O)[C@H](CO)NC(=O)[C@@H](NC(=O)[C@@H]1CCCN1C(=O)[C@H](C)NC(=O)[C@H](CO)NC(=O)[C@H](Cc1ccc(O)cc1)NC(=O)[C@H](CO)NC(=O)[C@H](C)NC(=O)[C@H](Cc1ccc(O)cc1)NC(=O)CCCC[C@@H]1SC[C@@H]2NC(=O)N[C@@H]21)C(C)C)C(=O)N[C@@H](CO)C(=O)N[C@H](C(=O)N[C@@H](CCCNC(=N)N)C(=O)N[C@@H](CCCNC(=N)N)C(=O)N[C@@H](CO)C(=O)N[C@@H](Cc1ccc(O)cc1)C(=O)N[C@@H](CO)C(=O)N[C@@H](CO)C(=O)N[C@@H](CO)C(=O)N[C@@H](CO)C(=O)NCC(=O)N[C@@H](CO)C(N)=O)C(C)C [Ser2Ala] (Biotin-YASYSAPVSSSLSVRRSYSSSSGS-NH2)	5.9±6.4 % of cells	23.5±1.1 % of cells	
CC(C)C[C@H](NC(=O)[C@H](CO)NC(=O)[C@H](CO)NC(=O)[C@H](CO)NC(=O)[C@@H](NC(=O)[C@@H]1CCCN1C(=O)[C@H](C)NC(=O)[C@H](CO)NC(=O)[C@H](Cc1ccc(O)cc1)NC(=O)[C@H](C)NC(=O)[C@H](CO)NC(=O)[C@H](Cc1ccc(O)cc1)NC(=O)CCCC[C@@H]1SC[C@@H]2NC(=O)N[C@@H]21)C(C)C)C(=O)N[C@@H](CO)C(=O)N[C@H](C(=O)N[C@@H](CCCNC(=N)N)C(=O)N[C@@H](CCCNC(=N)N)C(=O)N[C@@H](CO)C(=O)N[C@@H](Cc1ccc(O)cc1)C(=O)N[C@@H](CO)C(=O)N[C@@H](CO)C(=O)N[C@@H](CO)C(=O)N[C@@H](CO)C(=O)NCC(=O)N[C@@H](CO)C(N)=O)C(C)C [Ser3Ala] (Biotin-YSAYSAPVSSSLSVRRSYSSSSGS-NH2)	0.8±1.2 % of cells	19.1±0.9 % of cells	
